In assay [1] the test system is iron/ascorbate induced lipid peroxidation. Put plainly: Lipid peroxidation (LPO) model, heat-treated hepatic microsomes, TBA reactive substances. Type of assay: biochemical. To be noted: rat hepatic microsomes, reaction started with 10 uM FeSO4; mean ± s.e.m., n = 3-5. How it is done:
Experiment 1: Lipid Peroxidation Model
Preparation of hepatic microsomes.
Male Wistar rats (200-220 g) obtained from Harlan Nederland B.V. (Horst, The Netherlands) were sacrificed by decapitation. Livers were removed and homogenized in ice-cold phosphate buffer (50 mM+0.1 mM EDTA, pH=7.4, 1:2 w/v). The homogenate was centrifuged at 10 000× g (20 min at 4° C.). Subsequently, the supernatant was centrifuged at 100 000× g for 60 min (4° C.). The pellet was resuspended in phosphate buffer and centrifuged again at 100 000× g (60 min, 4° C.). Finally the microsomal pellet was resuspended in phosphate buffer (2 g liver/ml) and 1 mL aliquots were stored at −80° C.
Microsomes were thawed and resuspended in ice-cold Tris-HCl buffer (50 mM, pH=7.4 at 37° C.) and washed by centrifugation. The pellet was resuspended in 2 mL 50 mM Tris-HCl buffer and heated to 100° C. for at least 2 min to remove all enzymatic factors just before resuspending and diluting it in ice-cold Tris buffer to 1.5 mg/mL.
Stock solutions of the flavonoids were freshly prepared in nitrogen-purged DMSO and nanopure water (1:1) just before use. The reaction was started by adding 10 uM freshly prepared FeSO4 in nitrogen-purged nanopure water. LPO was assayed by measuring thiobarbituric acid (TBA) reactive substances. At t=0, 5, 10, 15, 30, 45 and 60 min an 0.3 mL aliquot of the incubation was mixed with 2 mL of an ice-cold TBA-trichloroacetic acid-HCl-butylhydroxytoluene (BHT) solution to stop the reaction. After heating and centrifugation the absorbance at 535 vs 600 nm was determined. The TBA-trichloroacetic acid-HCl-butylhydroxytoluene solution was prepared by dissolving 41.6 mg TBA/10 ml trichloroacetic acid (16.8% w/v in 0.125 N HCl). To 10 ml TBA-trichloroacetic acid-HCl 1 ml BHT (1.5 mg/ml ethanol) was added.
The IC50 was determined by measuring the % LPO inhibition at several concentrations and interpolating the 50% inhibition point.

The nature of assay [2]: TEAC model (Trolox equivalent antioxidant capacity). To be noted: concentration of Trolox equivalent to 1 mM test compound; mean ± S.D., n = 3-5. How it is done: A solution of 2,2′-azino-bis(3-ethylbenzthiazoline-6-sulfonic acid) (1.23 mg/mL) and azobisamidinepropane (3.96 mg/mL) in 50 mM phosphate buffer (pH=7.4) was heated at 70° C. for 20 min. The amount of ABTS radicals was measured by determination of the absorbance at 734 nm.
Stock solutions of the flavonoids were freshly prepared in nitrogen-purged DMSO and nanopure water (1:1) just before use. A calibration curve of Trolox ((+/−)-6-hydroxy-2,5,7,8-tetramethyl-chroman-2-carboxylic acid) was made in a concentration range from 0 to 20 μM. A mixture of 50 μL test compound and 950 μL ABTS^−+ solution was incubated at 37° C. for 5 min. Subsequently the absorbance at 734 nm was determined on a UV/VIS Spectrophotometer.
The antioxidant-induced decrease in absorbance is directly related to the antioxidant capacity of the compound (solution) being tested.
The Trolox equivalent antioxidant capacity (TEAC) is defined as the concentration (mM) of Trolox having an antioxidant capacity equivalent to 1 mM of the test compound.

The test system of another assay is OVCAR-3 cells. Put plainly: Antitumor activity of flavonoids, SRB growth inhibition assay. Type of assay: cell-based. The conditions noted are these: 72 h. How it is done:
Experiment 6: Antitumor Activity of Flavonoids
Next to the use of flavonoids as medicaments in free radical mediated diseases, the presence of anti-tumor activity has been reported. Quercetin is the best known example (Molnar et al. Neoplasma, 28: 11-17 (1981)). Because of the possible use of these compounds in chemotherapy, it was checked whether the compounds affected cell growth.
On day 0 cultured OVCAR-3 cells were plated at a density of 5000 cells/well. After 24 h (day 1) the example compounds were added and after incubation of 72 h at 37° C. (day 4), growth inhibitory effects were evaluated with the standard SRB (sulforhodamine B) assay (Skehan et al. J. Natl. Cancer Inst., 82: 1107-1112 (1990)).

For assay [3], the system named is isolated mouse left atrium. Put plainly: Isolated mouse left atrium model: protection against doxorubicin-induced negative inotropy. Further details: key: NP: No protection. To be noted: 250 μM flavonoid with 35 μM doxorubicin, electrically paced mouse left atrium. How it is done:
Experiment 3: Isolated Mouse Left Atrium Model
In order to determine the cardioprotective properties of the compounds in vitro, the protection against doxorubicin-induced negative inotropy was studied, using the isolated mouse left atrium model.
The example compounds were tested for their protective effect on the negative inotropic action of doxorubicin on the isolated mouse left atrium. The testing model has been described earlier (de Jong et al.Ress Comm Chem Pathol Pharmacol 68, 275-289 (1990). In short, left atria were isolated from male Balb/c mice (18-22 g) and stimulated with square wave pulses of 3 ms duration at a frequency of 4 Hz. Incubation with […] doxorubicin causes a decrease in inotropy of 50% (after 1 h). Atria were incubated with 35 μM doxorubicin and 250 μM flavonoid. Inotropy was measured and expressed as % basal contractile force relative to t=0.

For `O=c1cc(-c2ccc(O)c(O)c2)oc2cc(O)ccc12` [Compound 8a, 3′,4′,7-trihydroxyflavone], the half-maximal inhibitory concentration (IC50) in assay [1] was determined as 11 ± 1.3 µM. For the same molecule, the TEAC in assay [2] is reported as 4.3 ± 0.2 mM.

Molecule `O=c1cc(-c2ccc(O)c(O)c2)oc2cc(OCCO)ccc12` [Compound 8c, 3′,4′-dihydroxy-7-hydroxyethoxyflavone] registered a 50% inhibitory concentration (IC50) in assay [1] of 16.4 ± 1.7 µM. Besides, the TEAC in assay [2] is on record as 4.3 ± 0.7 mM.

`C[N+](C)(C)CCCOc1ccc2c(=O)cc(-c3ccc(O)c(O)c3)oc2c1` [Compound 8d, 3′4′-dihydroxy-7-(3-trimethylaminopropoxy)flavone] showed a half-inhibitory concentration (IC50) in assay [1] of 37.3 ± 2.4 µM. Besides, in assay [2], the TEAC stood at 1.9 ± 0.3 mM.

With `CN(C)CCCOc1ccc2c(=O)cc(-c3ccc(O)c(O)c3)oc2c1` [Compound 8e, 3′,4′-dihydroxy-7-(3-dimethylaminopropoxy)flavone], the IC50 in assay [1] stood at 8.1 ± 1.1 µM. The TEAC in assay [2] was 2.9 ± 0.4 mM.

Consider `O=c1c(O)c(-c2ccc(O)c(O)c2)oc2ccccc12` [Compound 9a, 3′3,3′,4′-trihydroxyflavone], for which the IC50 came to 21 ± 2.4 µM in the assay with OVCAR-3 cells and 1.8 ± 1 µM in assay [1]. Moreover, the “Atrium protection (250 μM)” value in assay [3] is recorded as “NP^1”. The TEAC in assay [2] is 4.5 ± 0.5 mM.

For the molecule `COc1c(-c2ccc(O)c(O)c2)oc2ccccc2c1=O` [Compound 9b, 3′4′-dihydroxy-3-methoxyflavone], the IC50 in the assay on OVCAR-3 cells is 2.2 ± 0.4 µM; in assay [1] it was 1.3 ± 0.7 µM. The “Atrium protection (250 μM)” value in assay [3] is on record as “NP”. In addition, in assay [2], the TEAC is given as 4.4 ± 0.3 mM.

On to `O=c1c(OCCO)c(-c2ccc(O)c(O)c2)oc2ccccc12` [Compound 9c, 3′,4′-dihydroxy-3-hydroxyethoxyflavone], for which the half-maximal inhibitory concentration (IC50) in the assay with OVCAR-3 cells (Homo sapiens) was 44.2 ± 20.1 µM; in assay [1], 0.6 ± 0.1 µM. Also, the “Atrium protection (250 μM)” value in assay [3] is given as “NP”. In assay [2], the TEAC is recorded as 4.4 ± 0.4 mM.

In assay [1], `O=C(O)COc1c(-c2ccc(O)c(O)c2)oc2ccccc2c1=O` [Compound 9d, 3′4′-dihydroxy-3-(2-ethoxycarboxylic acid)flavone] gave an IC50 of 6.5 ± 1 µM. Besides, the “Atrium protection (250 μM)” value in assay [3] is reported as “NP”. For the same molecule, in assay [2], the TEAC stood at 7.6 ± 0.6 mM.

`CN(C)CCCOc1c(-c2ccc(O)c(O)c2)oc2ccccc2c1=O` [Compound 9e, 3′,4′-dihydroxy-3-(3-dimethylaminopropoxy)flavone] had a 50% inhibitory concentration (IC50) in assay [1] of 1 ± 0.1 µM. Also, in assay [3], the “Atrium protection (250 μM)” value is recorded as “NP”. In addition, the TEAC in assay [2] is reported as 3.4 ± 0.4 mM.

Molecule `C[N+](C)(C)CCCOc1c(-c2ccc(O)c(O)c2)oc2ccccc2c1=O` [Compound 9f, 3′4′-dihydroxy-3-(3-trimethylaminopropoxy)flavone] registered a half-inhibitory concentration (IC50) in assay [1] of 1.2 ± 0.3 µM. Further, the “Atrium protection (250 μM)” value in assay [3] was “NP”. Also, the TEAC in assay [2] stood at 4.2 ± 0.2 mM.

As for `C[N+](C)(C)CCCCCCOc1c(-c2ccc(O)c(O)c2)oc2ccccc2c1=O` [Compound 9g, 3′4′-dihydroxy-3-(6-trimethylaminohexyloxy)flavone], in assay [1], 1.4 ± 0.3 µM corresponded to half-maximal inhibition (IC50). In addition, the “Atrium protection (250 μM)” value in assay [3] is recorded as “NP”. Moreover, in assay [2], the TEAC worked out at 4.3 ± 0.6 mM.

In assay [1], `C[N+](C)(C)CCCCCCCCOc1c(-c2ccc(O)c(O)c2)oc2ccccc2c1=O` [Compound 9h, 3′4′-dihydroxy-3-(8-trimethylaminooctyloxy)flavone] returned an IC50 of 1 ± 0.3 µM. Moreover, in assay [3], the “Atrium protection (250 μM)” value is listed as “NP”. Further, in assay [2], the TEAC amounted to 3.3 ± 0.6 mM.

`C[C@@H]1O[C@@H](OC[C@H]2O[C@@H](Oc3c(-c4ccc(O)c(O)c4)oc4ccccc4c3=O)[C@H](O)[C@@H](O)[C@@H]2O)[C@H](O)[C@H](O)[C@H]1O` [Compound 9j, 3′,4′-dihydroxy-3-rutinoseflavone] yielded a concentration for half-maximal inhibition (IC50) in assay [1] of 15.7 ± 4.8 µM. Also, the “Atrium protection (250 μM)” value in assay [3] is “NP”. The TEAC in assay [2] amounted to 4.3 ± 0.3 mM.

For `COc1c(-c2ccc(O)c(O)c2)oc2cc(O)ccc2c1=O` [Compound 10b, 3-methoxy-7,3′,4′-trihydroxyflavone], the concentration for half-maximal inhibition (IC50) in the assay with OVCAR-3 cells (Homo sapiens) was determined as 15.8 ± 1.3 µM; in assay [1] it was 1.6 ± 0.7 µM. Besides, in assay [3], the “Atrium protection (250 μM)” value is listed as “NP”. For the same molecule, the TEAC in assay [2] is recorded as 5.9 ± 0.7 mM.

Regarding `O=c1c(OCCO)c(-c2ccc(O)c(O)c2)oc2cc(O)ccc12` [Compound 10c, 3-hydroxyethoxy-7,3′,4′-trihydroxyflavone], in assay [1], 21.7 ± 6.1 µM corresponded to half-maximal inhibition (IC50). Further, in assay [3], the “Atrium protection (250 μM)” value was determined as 13%. In assay [2], the TEAC stood at 3.4 ± 0.2 mM.

Regarding `C[N+](C)(C)CCCc1c(-c2ccc(O)c(O)c2)oc2cc(O)ccc2c1=O.[Cl-]` [Compound 10d, 3-(7,3′,4′-trihydroxyflavon-3-yl)-propyltrimethylammoniumchloride], the half-inhibitory concentration (IC50) in assay [1] turned out to be 3.8 ± 0.1 µM. For the same molecule, the “Atrium protection (250 μM)” value in assay [3] is recorded as 33%. Further, in assay [2], the TEAC worked out at 5.1 ± 0.3 mM.

As for `O=c1c(O)c(-c2ccccc2)oc2cc(O)cc(O)c12` [Galangin, reference compound], in assay [1], the IC50 was found to be 6 µM.

`O=c1c(O)c(-c2ccc(O)cc2)oc2cc(O)cc(O)c12` [Kaempferol, reference compound]: the 50% inhibitory concentration (IC50) in assay [1] stood at 6 µM.

As for `O=c1cc(-c2ccc(O)c(O)c2)oc2cc(O)cc(O)c12` [Lutcolin, reference compound], inhibition in assay [1] was half-maximal at 17 µM (IC50).

On to `O=c1c(O)c(-c2cc(O)c(O)c(O)c2)oc2cc(O)cc(O)c12` [Myricetin, reference compound], for which the concentration for half-maximal inhibition (IC50) in assay [1] worked out at 10 µM.

Consider `O=c1c(O)c(-c2ccc(O)c(O)c2)oc2cc(O)cc(O)c12` [Quercetin, reference compound], for which the IC50 amounted to 126 ± 50.5 µM in the assay on OVCAR-3 cells (Homo sapiens) and 9 µM in assay [1].

`C[C@@H]1O[C@@H](OC[C@H]2O[C@@H](Oc3c(-c4ccc(O)c(O)c4)oc4cc(O)cc(O)c4c3=O)[C@H](O)[C@@H](O)[C@@H]2O)[C@H](O)[C@H](O)[C@H]1O` [Rutin, reference compound] showed an IC50 in assay [1] of 10 µM.

In assay [1], `C[C@@H]1O[C@@H](OC[C@H]2O[C@@H](Oc3c(-c4ccc(O)c(O)c4)oc4cc(OCCO)cc(O)c4c3=O)[C@H](O)[C@@H](O)[C@@H]2O)[C@H](O)[C@H](O)[C@H]1O` [monoHER, 7-monohydroxyethylrutoside, reference compound] came in with a half-maximal inhibitory concentration (IC50) of 12.7 ± 3.7 µM. Besides, the “Atrium protection (250 μM)” value in assay [3] amounted to 52%. Also, in assay [2], the TEAC is listed as 3.0 ± 0.2 mM.

Fisetin [reference compound]: the IC50 in assay [1] amounted to 16 µM.

Broadly, the IC50 is the concentration needed to halve the response being measured.

Source of the values: patent publication US20020147353A1, “Novel flavonoids” (Vereniging christelijk wetenschappelijk anderwijs, priority 1999, published 2002).
